Among the targets are DRB1*0401 (Homo sapiens, UniProt P01903+P01911, A100K/A169T/F76Y/I96L/K127E/L162R/M171V/N62H/P40V/Q125Y/R42H/S133A/S149N/S66Y/V115G/V209L/W38E); DRB1*0802 (Homo sapiens, UniProt P01903+P01911, A100R/A103L/A169T/F76Y/H45Y/I96F/K41T/L162R/M171V/P40S/Q125H/Q178H/Q39Y/Q99D/R218S/R42G/S66Y/V115G/W38E); DRB1*1501 (Homo sapiens, UniProt P01903+P01911); DRB1*0301 (Homo sapiens, UniProt P01903+P01911, A100K/A102G/A103R/A169T/F55Y/I96L/K41T/L162R/M171V/P40S/Q125H/Q178H/Q39Y/R42S/S66N/T106N/T262R/W38E/Y61H); DRB1*1101 (Homo sapiens, UniProt P01903+P01911, A100R/A169T/A87E/I96F/K41T/L162R/M171V/P40S/Q125H/Q178H/Q39Y/Q99D/R42S/S66Y/T262R/V115G/W38E); DRB5*0101 (Homo sapiens, UniProt P01903+Q30154); DRB3*0101 (Homo sapiens, UniProt P01903+P79483); DRB1*0901 (Homo sapiens, UniProt P01903+P01911, A100R/A103E/D57H/D86V/F55Y/F60I/F76Y/I96F/K127E/L162R/M171V/P40D/Q125H/Q99R/R33Q/R42F/S133A/S66N/T210M/V115G/W38K/Y107V/Y59G/Y89S); DRB1*1302 (Homo sapiens, UniProt P01903+P01911, A100E/A169T/K41T/L162R/M171V/P40S/Q125H/Q178H/Q39Y/Q99D/R42S/S66N/T262R/V115G/W38E/Y61H); DRB1*0405 (Homo sapiens, UniProt P01903+P01911, A100R/A169T/D86S/F76Y/I96L/K127E/L162R/M171V/N62H/P40V/Q125Y/R42H/S133A/S149N/S66Y/V115G/V209L/W38E); DRB1*0701 (Homo sapiens, UniProt P01903+P01911, A100R/A102G/A103Q/D57E/D86V/E43K/F76Y/K127E/L162R/M171V/P40G/Q125H/Q99D/R33Q/R42Y/R54Q/S133A/S66F/T210M/V115G/Y107V/Y59L/Y89S); DRB1*0404 (Homo sapiens, UniProt P01903+P01911, A100R/A169T/F76Y/I96L/K127E/L162R/M171V/N62H/P40V/Q125Y/R42H/S133A/S149N/S66Y/V209L/W38E); DRB4*0101 (Homo sapiens, UniProt P01903+P13762, G164S); DRB1*0101 (Homo sapiens, UniProt P01903+P01911, A100R/D57E/F55L/F60I/F76Y/I96L/L162R/M171V/P40L/Q125E/R42F/V115G/Y59C).

Common to all, as to experiment: biochemical
What all share (type): binding

Setting [1] is: competitive inhibition of radiolabeled standard peptide, '-' distinct from ND, read-out: Binding Affinity (nM) DRB1*0901.
Where [2] appears, read: competitive inhibition of radiolabeled standard peptide, '-' distinct from ND, read-out: Binding Affinity (nM) DRB1*1302.

Where two headings read alike, the source gives them in different places.

DRB1*0301, sequence (P01903 26-254, other chains not shown): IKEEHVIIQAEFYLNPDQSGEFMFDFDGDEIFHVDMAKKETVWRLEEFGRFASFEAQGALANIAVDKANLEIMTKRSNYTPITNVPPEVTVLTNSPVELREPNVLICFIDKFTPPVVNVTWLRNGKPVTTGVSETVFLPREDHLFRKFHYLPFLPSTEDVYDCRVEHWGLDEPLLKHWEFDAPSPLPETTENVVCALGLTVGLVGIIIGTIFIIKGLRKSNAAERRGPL
DRB1*1101, sequence (P01903 26-254, other chains not shown): as above
DRB1*1302, sequence (P01903 26-254 limits assumed, other chains not shown): as the sequence (P01903 26-254, other chains not shown) above

`CSCC[C@H](NC(=O)CNC(=O)[C@H](CCCCN)NC(=O)[C@H](CC(C)C)NC(=O)[C@H](CCC(=O)O)NC(=O)[C@H](CC(C)C)NC(=O)[C@H](CCCCN)NC(=O)[C@H](CC(=O)O)NC(=O)[C@H](CCSC)NC(=O)[C@H](CCCCN)NC(=O)[C@H](CC(C)C)NC(=O)[C@H](CCCNC(=N)N)NC(=O)[C@H](CS)NC(=O)[C@H](CCCCN)NC(=O)[C@@H](N)CC(C)C)C(=O)O` [Envelope 281-295]: the IC50 came out at 2910 nM against DRB1*0401; 4460 nM at DRB1*0802; 652 nM against DRB1*1501; 17 nM against DRB1*0301; 3330 nM against DRB1*1101; 2500 nM at DRB5*0101. The IC50 on DRB3*0101 came out at 31 nM; against DRB1*0901, 7010 nM; against DRB1*1302 it was 915 nM; against DRB1*0405, 9740 nM; at DRB1*0701, 2160 nM; against DRB1*0404 it was 13200 nM.
Turning to `CC[C@H](C)[C@H](NC(=O)[C@H](CCCCN)NC(=O)CNC(=O)[C@H](CCC(=O)O)NC(=O)[C@@H](NC(=O)[C@H](CS)NC(=O)[C@H](CC(C)C)NC(=O)[C@H](CCCCN)NC(=O)[C@H](CCCNC(=N)N)NC(=O)[C@H](CC(C)C)NC(=O)[C@@H](NC(=O)[C@H](C)NC(=O)[C@H](CC(C)C)NC(=O)[C@H](CCC(N)=O)NC(=O)[C@@H](N)[C@@H](C)O)[C@@H](C)O)[C@@H](C)CC)C(=O)O` [Envelope 51-65], the IC50 came out at 2140 nM at DRB1*0401; 130 nM at DRB1*0802; 982 nM against DRB1*1501; 2510 nM at DRB1*0301; 40 nM against DRB1*1101; 1850 nM against DRB5*0101. Also, the IC50 amounted to 154 nM on DRB4*0101; 8300 nM on DRB3*0101; 2340 nM on DRB1*0901 (setting [1]); 1080 nM at DRB1*1302 (setting [2]); 6340 nM at DRB1*0405; 10100 nM at DRB1*0404.
As for `CC[C@H](C)[C@H](NC(=O)[C@H](CC(C)C)NC(=O)[C@H](CC(N)=O)NC(=O)[C@H](Cc1ccc(O)cc1)NC(=O)[C@H](CC(N)=O)NC(=O)[C@@H]1CCCN1)C(=O)N[C@H](C(=O)N[C@@H](CCSC)C(=O)N[C@@H](CC(=O)O)C(=O)N[C@@H](CCC(=O)O)C(=O)N[C@@H](C)C(=O)N[C@@H](Cc1c[nH]cn1)C(=O)N[C@@H](Cc1ccccc1)C(=O)N[C@H](C(=O)N[C@@H](CC(=O)O)C(=O)O)[C@@H](C)O)[C@@H](C)CC` [NS3 277-291], the IC50 on DRB1*0802 was found to be 396 nM; on DRB1*1501 it was 1320 nM; on DRB1*0301 it was 37 nM; at DRB1*1101, 4610 nM; on DRB5*0101, 7130 nM; against DRB4*0101, 208 nM. Moreover, the IC50 on DRB3*0101 was 4.4 nM; at DRB1*0901 (setting [1]), 2600 nM; at DRB1*1302 (setting [2]), 68 nM; against DRB1*0405, 402 nM; at DRB1*0701, 2700 nM; at DRB1*0404, 1530 nM.
As for `CC[C@H](C)[C@H](NC(=O)[C@H](CC(=O)O)NC(=O)CNC(=O)[C@@H](NC(=O)[C@@H](NC(=O)[C@@H](NC(=O)[C@@H](NC(=O)[C@H](CC(C)C)NC(=O)[C@@H](N)CCCCN)[C@@H](C)O)C(C)C)C(C)C)C(C)C)C(=O)N[C@H](C(=O)NCC(=O)N[C@H](C(=O)N[C@@H](CC(C)C)C(=O)N[C@@H](CCC(=O)O)C(=O)N[C@@H](CCC(N)=O)C(=O)O)C(C)C)[C@@H](C)CC` [NS1 85-99], the IC50 turned out to be 88 nM on DRB1*0401; 21 nM against DRB1*1501; 533 nM against DRB1*0301; 807 nM against DRB1*1101; 77 nM against DRB5*0101; 220 nM against DRB4*0101. Moreover, the IC50 on DRB3*0101 was determined as 1680 nM; at DRB1*0901 (setting [1]), 42 nM; at DRB1*1302 (setting [2]), 483 nM; at DRB1*0405, 1400 nM; at DRB1*0701 it was 70 nM; against DRB1*0404, 2660 nM.
For the molecule `CSCC[C@H](NC(=O)[C@H](CC(C)C)NC(=O)[C@H](CCCNC(=N)N)NC(=O)[C@H](Cc1c[nH]cn1)NC(=O)[C@H](CC(=O)O)NC(=O)[C@H](CS)NC(=O)[C@H](CC(C)C)NC(=O)[C@H](CCC(N)=O)NC(=O)[C@@H](NC(=O)[C@H](Cc1ccc(O)cc1)NC(=O)[C@@H](NC(=O)[C@@H](N)CCC(=O)O)C(C)C)[C@@H](C)O)C(=O)N[C@@H](CO)C(=O)N[C@@H](C)C(=O)N[C@@H](C)C(=O)O` [NS1 173-187], the IC50 amounted to 502 nM at DRB1*0401; 900 nM on DRB1*0802; 1040 nM against DRB1*1501; 787 nM against DRB1*0301; 753 nM against DRB5*0101; 6150 nM against DRB4*0101. The IC50 against DRB3*0101 came out at 57 nM; on DRB1*0901 (setting [1]), 608 nM; at DRB1*1302 (setting [2]), 4600 nM; against DRB1*0101, 26 nM; at DRB1*0405, 1450 nM; on DRB1*0701 it was 1660 nM. Moreover, on DRB1*0404, the IC50 worked out at 1290 nM.
With `CC(C)C[C@H](NC(=O)[C@H](CCC(=O)O)NC(=O)[C@H](CCCCN)NC(=O)[C@@H](N)CCCNC(=N)N)C(=O)N[C@@H](CC(C)C)C(=O)N[C@H](C(=O)N[C@H](C(=O)N[C@@H](Cc1ccccc1)C(=O)N[C@@H](CCCCN)C(=O)N[C@@H](CC(N)=O)C(=O)N[C@@H](C)C(=O)N[C@@H](Cc1c[nH]cn1)C(=O)N[C@@H](C)C(=O)N[C@@H](CCCCN)C(=O)N[C@@H](CCCCN)C(=O)O)[C@@H](C)O)C(C)C` [Envelope 231-245], the IC50 on DRB1*0401 was determined as 3.5 nM; at DRB1*0802, 7.2 nM; on DRB1*1501, 5.2 nM; against DRB1*0301 it was 2320 nM; at DRB5*0101 it was 25 nM; at DRB4*0101 it was 57 nM. Moreover, the IC50 on DRB3*0101 was 16500 nM; on DRB1*0901, 48 nM; against DRB1*1302, 17200 nM; against DRB1*0101, 5.1 nM; at DRB1*0405, 31 nM; against DRB1*0701, 3780 nM. The same molecule came in with an IC50 against DRB1*0404 of 1590 nM.
On to `CC[C@H](C)[C@H](NC(=O)[C@@H](N)CCCCN)C(=O)N1CCC[C@H]1C(=O)NCC(=O)NCC(=O)N[C@@H](C)C(=O)N[C@@H](CCSC)C(=O)N[C@@H](Cc1ccc(O)cc1)C(=O)N[C@@H](C)C(=O)N[C@@H](CC(=O)O)C(=O)N[C@@H](CC(=O)O)C(=O)N[C@H](C(=O)N[C@@H](C)C(=O)NCC(=O)N[C@@H](Cc1c[nH]c2ccccc12)C(=O)N[C@@H](CC(=O)O)C(=O)N[C@H](C(=O)O)[C@@H](C)O)[C@@H](C)O` [NS5 523-539], for which the IC50 against DRB1*0401 was found to be 7.3 nM; on DRB1*0802, 1160 nM; against DRB1*1501 it was 15100 nM; against DRB1*0301, 9.3 nM; against DRB5*0101 it was 4120 nM; against DRB4*0101 it was 445 nM. The IC50 at DRB3*0101 was determined as 45 nM; on DRB1*0901 (competitive inhibition of radiolabeled standard peptide, DRB1*0901, read-out: Binding Affinity (nM) DRB1*0901) it was 13200 nM; at DRB1*1302 (competitive inhibition of radiolabeled standard peptide, DRB1*1302, read-out: Binding Affinity (nM) DRB1*1302), 1430 nM; on DRB1*0101 it was 733 nM; against DRB1*0405 it was 3170 nM; against DRB1*0701 it was 6560 nM. The IC50 on DRB1*0404 turned out to be 3130 nM.

(Values after PMC3794980, “Identification of Conserved and HLA Promiscuous DENV3 T-Cell Epitopes” (PLoS Neglected Tropical Diseases, 2013).)
